# Laboratory results as given in PMC4792161, “A novel pyrazole derivative protects from ovariectomy-induced osteoporosis through the inhibition of NADPH oxidase” (Scientific Reports, 2016).
# Where a name gives a salt, the structure may show the parent alone. Marks after values point to notes of the source that are not given here.
# Assays:
# xanthine oxidase = xanthine oxidase (Bos taurus, UniProt P80457); assay: Xanthine oxidase assay (lucigenin); type: biochemical
# Experimental: Xanthine oxidase activity was measured by lucigenin. Reaction mixtures contained 0.1 mU xanthine oxidase, 0.25 mM Xanthine, and 0.4 mM lucigenin with the indicated inhibitor (0–20 μM). Luminescence measured over 30 min at 37 °C with luminometor (DTX800, Beckman coulter).
# [1] = test system: OVX-induced osteoporotic ddY mice; assay: Number of OBs in cortical bone lining of OVX mice (H&E); settings: mouse, in vivo
# Experimental: Sham OVX Risedronate 20 mg/kg 10 mg/kg 5 mg/kg 2.5 mg/kg20.0mg/kg 10.0mg/kg 5.0mg/kg 2.5mg/kg […]
# Supplementary Figure S8. […] CB number was […]
# counted in osteoblastic lining in cortical bone with H&E staining. a p<0.005 and b p<0.005 as compared with OVX and Risendronate, respectively, c p<0.005 and d p<0.005 as compared with 20
# [2] = test system: OVX-induced osteoporotic ddY mice; assay: Bone strength (failure load, three-point bending test) in OVX mice; type: in vivo; settings: oral once daily 28 days; risedronate 2.5 mg/kg
# BMMs = assay: RANKL-induced OC differentiation, TRAP staining; type: cell-based, C57BL/6 mice; settings: M-CSF 30 ng/ml, RANKL 100 ng/ml, dose-dependent
# Experimental: RANKL-induced ROS generation was monitored by confocal microscopic analysis of DCF fluorescence. Data represent three repeated experiments and are shown as mean ± SD (n = 3). […] (D) TRAP^+ MNCs containing more than 3 nuclei were counted. Data represent mean ± S.D., *P < 0.005. Scale bar, 500 μm.
# Primary BMMs were obtained from 6- to 8-week-old male C57BL/6 mice (The Jackson Laboratory, Bar Harbor, […], USA) as described previously. In brief, bone marrow cells were cultured in α-MEM (HyClone, Logan, UT, USA) containing 10% fetal bovine serum (FBS) (HyClone, Logan UT, USA) with 30 ng/ml macrophage-colony stimulating facor (M-CSF) for 3 days to obtain OC precursor cells of monocyte/macrophage lineage. For OC differentiation, the precursor cells were treated with 100 ng/ml RANKL in the presence of M-CSF with or without for 3–4 days. OCs were fixed with 4% paraformaldehyde and stained for tartrate-resistant acid phosphatase (TRAP) using a leukocyte acid phosphatase cytochemistry kit (Sigma-Aldrich, St. Louis, MO, USA) according to the manufacturer’s instructions. TRAP-positive multinucleated cells (TRAP^+ MNCs) containing three or more nuclei were counted as OC-like cells.
# Pre-OCs = assay: OC fusion assay; type: cell-based, C57BL/6 mice; settings: 10 μM, 24 hours
# Experimental: Cells were stained for TRAP using a leukocyte acid phosphatase cytochemistry kit (Sigma-Aldrich, St. Louis, MO, USA) according to the manufacturer’s instructions. […]
# (§1) Scale bar, 500 μm. (C,D) Mature OCs were generated with M-CSF and RANKL, cells were seeded onto dentine discs and further cultured with […]
# (§2) Cells were stained with hematoxylin for visualization of pit formation (C). The area of resorption pits were measured with Image-Pro Plus 4.5 (D). Scale bar, 500
# (§3) μm. Data represent mean ± S.D., n.s., not significant. […]
# [3] = test system: OVX-induced osteoporotic ddY mice; assay: Femur histopathology-histomorphometry in OVX mice; type: in vivo
# Experimental: Risedronate sodium (2.5 mg/kg) served as a reference compound. […] Histopathology and histomorphometrical analyses including trabecular bone volume (BV/TV), trabecular bone number (Tb.N), trabecular bone length (Tb.Le), trabecular bone thickness (Tb.Th), cortical bone thickness (Ct.Th), OC number (N.Oc), bone mineral density (BMD) and bone strength (failure load, FL) were conducted.
# The study was reviewed and approved by the Institutional Animal Care and Use Committee (IACUC) of Center for Laboratory Animal Sciences, Ewha Industry-University Cooperation Foundation, Ewha Womans University. Experimental methods were carried out in accordance with the approved ethic guidelines in Ewha Industry-University Cooperation Foundation, Ewha Womans University. Beginning 4 weeks after OVX, the female ddY mice received 2.5, 5, 10, or 20 mg/kg of #18–278, 2.5 mg/kg of risedronate, or vehicle once daily for 28 days. The Changes in body weight, bone weight, bone mineral density (BMD), failure load (FL), bone calcium (Ca), inorganic phosphorus (P) contents, histology and histomorphology were monitored. Serum osteocalcin and bone specific alkaline phosphatase (bALP) were monitored in mice receiving Ewha-18278.
# The left side of femur of each mouse was separated and fixed in 10% neutral buffered formalin and decalcified in a solution comprised of 24.4% formic acid and 0.5N sodium hydroxide for 5 days, with spent solution replaced with fresh solution each day. Each sample was embedded in paraffin, sectioned to a thickness of 3–4 μm and exposed to with Hematoxylin & Eosin (H&E) stain. Histomorphometry was conducted as for bone mass and structure with bone resorption in a uniform area of epiphyseal regions of femur (growth plate regions were excluded). Cortical bone thickness was measured in the mid-shaft region of the femur.
# Mature OCs = assay: Bone resorption assay on dentine discs; type: cell-based, C57BL/6 mice; settings: 10 μM, 24 hours
# Experimental: The cells were removed from the dentine discs and the dentine discs were stained with hematoxylin. Pit areas were photographed under a light microscope and analyzed using Image-Pro Plus version 4.5 software (Media-Cybernetics, Rockville, MD, USA). […]
# as §1, §2, §3
# [4] = 2.5 mg/kg oral once daily 28 days
# [5] = 5 mg/kg oral once daily 28 days
# [6] = 10 mg/kg oral once daily 28 days
# [7] = 20 mg/kg oral once daily 28 days
# Sequence of xanthine oxidase (P80457 2-1332): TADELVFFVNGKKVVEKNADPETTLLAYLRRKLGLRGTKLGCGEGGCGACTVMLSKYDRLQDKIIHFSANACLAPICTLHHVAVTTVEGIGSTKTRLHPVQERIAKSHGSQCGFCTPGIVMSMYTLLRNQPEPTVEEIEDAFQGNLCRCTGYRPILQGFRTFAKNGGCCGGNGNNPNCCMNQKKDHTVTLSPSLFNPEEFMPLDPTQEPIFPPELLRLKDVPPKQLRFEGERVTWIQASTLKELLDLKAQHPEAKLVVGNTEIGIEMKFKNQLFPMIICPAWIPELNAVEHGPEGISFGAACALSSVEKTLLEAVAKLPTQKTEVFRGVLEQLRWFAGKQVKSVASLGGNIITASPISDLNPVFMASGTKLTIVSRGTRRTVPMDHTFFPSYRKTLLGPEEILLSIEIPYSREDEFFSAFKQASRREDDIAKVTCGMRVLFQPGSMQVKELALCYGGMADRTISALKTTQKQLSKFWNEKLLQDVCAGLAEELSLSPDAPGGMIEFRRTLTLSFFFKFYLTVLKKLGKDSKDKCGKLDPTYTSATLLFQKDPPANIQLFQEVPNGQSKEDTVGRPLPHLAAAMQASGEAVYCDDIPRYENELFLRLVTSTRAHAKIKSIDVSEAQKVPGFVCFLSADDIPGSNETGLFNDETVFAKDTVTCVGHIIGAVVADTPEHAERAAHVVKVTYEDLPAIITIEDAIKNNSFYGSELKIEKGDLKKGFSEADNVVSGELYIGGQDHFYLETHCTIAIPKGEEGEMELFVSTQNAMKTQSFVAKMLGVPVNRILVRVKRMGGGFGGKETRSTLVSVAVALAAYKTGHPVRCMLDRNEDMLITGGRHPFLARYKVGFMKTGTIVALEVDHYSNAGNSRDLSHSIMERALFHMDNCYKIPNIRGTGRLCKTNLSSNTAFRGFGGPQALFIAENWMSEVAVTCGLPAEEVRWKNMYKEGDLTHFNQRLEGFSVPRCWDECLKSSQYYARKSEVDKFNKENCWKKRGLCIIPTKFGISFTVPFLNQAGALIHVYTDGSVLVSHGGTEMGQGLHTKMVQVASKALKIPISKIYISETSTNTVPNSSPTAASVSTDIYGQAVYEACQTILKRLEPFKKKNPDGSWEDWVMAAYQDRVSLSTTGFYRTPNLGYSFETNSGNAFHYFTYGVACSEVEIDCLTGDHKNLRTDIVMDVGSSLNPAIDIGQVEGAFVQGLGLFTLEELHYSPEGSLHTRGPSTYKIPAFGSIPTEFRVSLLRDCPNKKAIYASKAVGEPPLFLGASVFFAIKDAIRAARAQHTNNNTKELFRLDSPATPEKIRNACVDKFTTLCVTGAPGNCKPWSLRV
structure (smiles),measurement,setting,value
"CCCc1c(-c2ccccc2)nn(-c2ccccn2)c1O [Ewha-18278, 3-phenyl-1-(pyridin-2-yl)-4-propyl-1H-5-hydroxypyrazole HCl]",inhibitory activity on xanthine oxidase,xanthine oxidase,no inhibitory activities
same,number of OBs in tibia and femur compared to OVX control mice,[1],increased
same,bone strength (FL) of femur and tibia compared to control OVX,[2],enhanced
same,formation of TRAP-positive OCs with >3 nuclei,BMMs,inhibited the formation of TRAP-positive OCs
same,fusion of OCs,Pre-OCs,did not affect
same,BV/TV (trabecular bone volume),[3]; [4],23.62 ± 3.63 ^a %
same,Ct.Th (cortical bone thickness),[3]; [4],136.48 ± 10.32 ^a μm
same,"N.OC/BS (osteoclast cell number, N/epiphyseal)",[3]; [4],13.75 ± 2.25 ^e numbers
same,"Tb.N (trabecular bone number, N/epiphyseal)",[3]; [4],9.75 ± 1.67 ^e numbers
same,Tb.Th (trabecular bone thickness),[3]; [4],40.98 ± 5.94 ^a μm
same,BV/TV (trabecular bone volume),[3]; [5],29.06 ± 2.72 ^ac %
same,Ct.Th (cortical bone thickness),[3]; [5],159.04 ± 13.45 ^ac μm
same,"N.OC/BS (osteoclast cell number, N/epiphyseal)",[3]; [5],10.63 ± 2.77 ^eg numbers
same,"Tb.N (trabecular bone number, N/epiphyseal)",[3]; [5],11.25 ± 1.04 ^eh numbers
same,Tb.Th (trabecular bone thickness),[3]; [5],52.98 ± 8.96 ^ac μm
same,BV/TV (trabecular bone volume),[3]; [6],33.63 ± 3.51 ^c %
same,Ct.Th (cortical bone thickness),[3]; [6],165.52 ± 12.06 ^ac μm
same,"N.OC/BS (osteoclast cell number, N/epiphyseal)",[3]; [6],6.63 ± 1.30 ^eg numbers
same,"Tb.N (trabecular bone number, N/epiphyseal)",[3]; [6],15.38 ± 1.60 ^eg numbers
same,Tb.Th (trabecular bone thickness),[3]; [6],68.14 ± 11.23 ^ac μm
same,BV/TV (trabecular bone volume),[3]; [7],34.07 ± 3.89 ^c %
same,Ct.Th (cortical bone thickness),[3]; [7],198.06 ± 12.51 ^c μm
same,"N.OC/BS (osteoclast cell number, N/epiphyseal)",[3]; [7],5.63 ± 1.41 ^fg numbers
same,"Tb.N (trabecular bone number, N/epiphyseal)",[3]; [7],16.63 ± 1.19 ^eg numbers
same,Tb.Th (trabecular bone thickness),[3]; [7],71.98 ± 12.20 ^ac μm
same,bone resorption activity of OCs,Mature OCs,did not affect
